Values quoted from earlier work, collected in patent US9878046B2, “Adverse side-effects associated with administration of an anti-hyaluronan agent and methods for ameliorating or preventing the side-effects” (Halozyme, Inc., priority 2010, dated 2018).

Legend:
[1] = glucocorticoid, route IV or PO as listed; cited from earlier work
B16 melanoma model = conditions: oral administration at 600 mg/kg/d; cited from earlier work

| SMILES | Equivalent Potency [1] | reduction of metastases (B16 melanoma model) |
| --- | --- | --- |
| C[C@H]1C[C@@H]2[C@H]([C@@H](O)C[C@@]3(C)[C@H]2CC[C@]3(O)C(=O)COC(=O)CCC(=O)O)[C@@]2(C)C=CC(=O)C=C12 [Methylprednisolone sodium succinate] | 4 mg | – |
| C[C@]12CCC(=O)C=C1CC[C@@H]1[C@@H]2[C@@H](O)C[C@@]2(C)[C@H]1CC[C@]2(O)C(=O)CO [Hydrocortisone] | 20 mg | – |
| Cc1cc(=O)oc2cc(O)ccc12 [4-MU, 4-Methylumbelliferone] | – | 64% |
| C[C@]12C=CC(=O)C=C1CC[C@@H]1[C@@H]2[C@@H](O)C[C@@]2(C)[C@H]1CC[C@]2(O)C(=O)CO [Prednisolone] | 5 mg | – |
